Assay results taken from patent US9540364B2, “Benzimidazole tetrahydrofuran derivatives” (Merck Sharp & Dohme Corp., priority 2012, dated 2017).

How the values were obtained:
ob/ob and db/db mice = details: following 8 weeks of administration; cited from earlier work
[1] = target: recombinant human AMPK complex 7 (containing α2β1γ1) (Homo sapiens (Human), UniProt P54646+Q9Y478); assay: In vitro AMPK activation assay (AMPKSAMSF); format: biochemical; details: for EC50: inflection point reflecting 50% of the maximum activation; for Emax: recombinant human AMPK complex 7 (α2β1γ1), 10-point titration, read-out: % Maximum AMP Activation of human AMPK Complex 7
Chain of recombinant human AMPK complex 7 (containing α2β1γ1) (P54646 whole entry): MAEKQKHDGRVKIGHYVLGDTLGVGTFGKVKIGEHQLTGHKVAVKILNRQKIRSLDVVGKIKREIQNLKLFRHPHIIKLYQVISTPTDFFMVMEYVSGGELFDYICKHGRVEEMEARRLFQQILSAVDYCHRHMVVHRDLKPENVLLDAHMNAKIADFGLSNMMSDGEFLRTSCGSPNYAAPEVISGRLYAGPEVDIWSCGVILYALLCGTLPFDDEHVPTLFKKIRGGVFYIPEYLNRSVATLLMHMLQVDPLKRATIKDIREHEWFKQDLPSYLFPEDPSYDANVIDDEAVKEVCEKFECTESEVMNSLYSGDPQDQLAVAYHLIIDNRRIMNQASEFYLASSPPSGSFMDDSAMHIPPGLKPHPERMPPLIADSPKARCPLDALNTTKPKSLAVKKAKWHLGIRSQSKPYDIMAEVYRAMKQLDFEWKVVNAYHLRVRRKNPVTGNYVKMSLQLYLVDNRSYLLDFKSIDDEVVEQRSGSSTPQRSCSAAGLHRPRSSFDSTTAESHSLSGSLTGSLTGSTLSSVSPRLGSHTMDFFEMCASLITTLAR
Chain of recombinant human AMPK complex 7 (containing α2β1γ1) (Q9Y478 whole entry): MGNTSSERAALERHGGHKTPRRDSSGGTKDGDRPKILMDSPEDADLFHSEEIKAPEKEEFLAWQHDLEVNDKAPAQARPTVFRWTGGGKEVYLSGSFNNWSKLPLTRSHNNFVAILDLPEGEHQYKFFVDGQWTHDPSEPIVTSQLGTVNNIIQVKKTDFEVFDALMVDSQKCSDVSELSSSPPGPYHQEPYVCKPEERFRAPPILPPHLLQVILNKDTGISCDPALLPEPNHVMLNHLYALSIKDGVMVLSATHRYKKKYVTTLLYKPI
Chain of recombinant human AMPK complex 7 (containing α2β1γ1) (P54619 whole entry partner): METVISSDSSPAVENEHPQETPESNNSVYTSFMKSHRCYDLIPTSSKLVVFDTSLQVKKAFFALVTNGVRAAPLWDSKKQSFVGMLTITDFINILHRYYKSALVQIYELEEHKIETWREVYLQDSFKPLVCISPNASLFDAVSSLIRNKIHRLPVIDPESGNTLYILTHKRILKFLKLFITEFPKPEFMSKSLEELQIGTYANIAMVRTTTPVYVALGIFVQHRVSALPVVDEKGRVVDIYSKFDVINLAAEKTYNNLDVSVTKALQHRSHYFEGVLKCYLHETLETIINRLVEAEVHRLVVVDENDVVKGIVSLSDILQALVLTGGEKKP
Procedure: The recombinant human AMPK complex 1 (containing α1β1γ1) or AMPK complex 7 (containing α2β1γ1) was obtained from baculovirus expression system. Recombinant viruses were generated by cotransfection of AMPK/pBacPak9 clones with Baculogold baculovirus DNA (Pharmingen) in spodoptera frugiperda 21 cells according to the manufacturer's instructions. Each round of virus amplification was performed for 5 days in Grace's medium containing 10% serum. Virus that had been subjected to three rounds of amplification was used for all protein production procedures. To express the AMPK complex, sf21 cells were adapted to serum free medium (SF900 II, Invitrogen) by sequential dilution from serum containing stocks into SF900II medium and maintained in shaker flasks at 90 rpm at 27° C. The recombinant AMPK enzyme complex was produced by triple infection, one recombinant virus for each of the subunits, in sf21 cells under serum free conditions. Cells were infected in log phase, 1×10^6 cells/ml, at a multiplicity of infection of ˜5. Cells were harvested by centrifugation at 10,000×g for 15 minutes after 72 hours of infection with viruses. The insect cell pellet from 2 liters of culture was resuspended in 50 ml lysis buffer (20 mM Tris-HCl, 50 mM NaCl, 50 mM NaF, 30 mM Na PPi, 0.25 M sucrose, 10 mM ZnCl2, 2 mM DTT, 0.4 mg/ml digitonin) and subjected to two cycles of freeze-thaw lysis in a dry-ice ethanol bath. Insoluble material was removed by centrifugation at 10,000×g and the supernatant was fractionated with use of polyethylene glycol (PEG). The protein fraction precipitating between 2.5 and 6% PEG was used for further purification using a Blue-Sepharose step (Zhou et al, J. Clin. Invest. 108, 1167-1174, 2001).
The in vitro AMPK activation assay is performed in a volume of 30 μl in a 384-well plate. Enzyme reactions were assembled in the microtiter plate by adding 15 μl of 2× enzyme in assay buffer (20 mM HEPES, pH 7.3, 5 mM MgCl2, 3 mM DTT, 0.01% Brij 35 and CamK Kinase, to activate AMPK) to wells which contained either DMSO or compound. The reaction was initiated with the addition of 15 μl 2× substrate mixture containing 200 μM ATP, and 3.0 μM fluorescently labeled SAMS (5-FAM-HMRSAMSGLHLVKRR-COOH) in assay buffer. After 45-minute incubation at 25° C., the reaction was stopped by the addition of 70 μl stop buffer (100 mM HEPES, pH 7.3, 40 mM EDTA, 0.015% Brij 35). Phosphorylated 5-FAM SAMS product is assessed using a Caliper EZ Reader LabChip microfluidics reader. Product conversion is determined by calculating the peak heights of the substrate and product and reporting the product/(product+substrate) peak ratio. The 10-point titration data were expressed as % maximum AMP activation. The results were plotted using 4 parameter fit and the inflection point reflecting 50% of the maximum activation was reported as the EC50.

Compound | EC50 [1] [nM] | Emax [1] [%] | blood glucose reduction (ob/ob and db/db mice) [%]
NC(=O)c1ncn([C@@H]2O[C@H](CO)[C@@H](O)[C@H]2O)c1N [AICAR] | – | – | 35
OC[C@H]1OC[C@@H](Oc2nc3cc(-c4ccc(-c5ccccc5)cc4)c(Cl)cc3[nH]2)[C@@H]1O [Example 1, (2R,3R,4R)-4-[[6-chloro-5-(4-phenylphenyl)-1H-benzimidazol-2-yl]oxy]-2-(hydroxymethyl)tetrahydrofuran-3-ol] | 216 | 301 | –
OC[C@H]1OC[C@@H](Oc2nc3cc(-c4ccc(-c5cccc(F)c5)cc4)c(Cl)cc3[nH]2)[C@@H]1O [Example 2] | 4290 | 137 | –
CNC(=O)c1ccc(-c2ccc(-c3cc4nc(O[C@@H]5CO[C@H](CO)[C@H]5O)[nH]c4cc3Cl)cc2)cc1 [Example 3] | 8 | 262 | –
N#Cc1ccc(-c2ccc(-c3cc4nc(O[C@@H]5CO[C@H](CO)[C@H]5O)[nH]c4cc3Cl)cc2)c(F)c1 [Example 5] | 209 | 288 | –
OC[C@H]1OC[C@@H](Oc2nc3cc(-c4ccc(-c5ccc(-n6ccnn6)cc5)cc4)c(Cl)cc3[nH]2)[C@@H]1O [Example 7] | 8 | 233 | –
OC[C@H]1OC[C@@H](Oc2nc3cc(-c4ccc(-c5ccc(C6CNCCO6)cc5)cc4)c(Cl)cc3[nH]2)[C@@H]1O (stereo partly drawn) [Example 10] | 34 | 210 | –
OC[C@H]1OC[C@@H](Oc2nc3cc(-c4ccc(-c5ccc(-c6nccs6)cc5)cc4)c(Cl)cc3[nH]2)[C@@H]1O [Example 12] | 76 | 170 | –
OC[C@H]1OC[C@@H](Oc2nc3c(F)c(-c4ccc(-c5ccc(-n6ccnn6)cc5)cc4)c(F)cc3[nH]2)[C@@H]1O [Example 13] | 5 | 283 | –
CNC(=O)c1ccc(-c2ccc(-c3c(F)cc4[nH]c(O[C@@H]5CO[C@H](CO)[C@H]5O)nc4c3F)cc2)cc1 [Example 14] | 4 | 340 | –
OC[C@H]1OC[C@@H](Oc2nc3c(F)c(-c4ccc(-c5ccc(-n6cccn6)cc5)cc4)c(F)cc3[nH]2)[C@@H]1O [Example 17] | 20 | 313 | –
OC[C@H]1OC[C@@H](Oc2nc3c(F)c(-c4ccc(-c5ccc(-c6nccs6)cc5)cc4)c(F)cc3[nH]2)[C@@H]1O [Example 19] | 67 | 251 | –

More lines, in order of falling EC50 [1], values ahead:

EC50 [1] [nM] | Emax [1] [%] | Compound | blood glucose reduction (ob/ob and db/db mice) [%]
104 | 172 | Cc1cc(-c2ccc(-c3ccc(-c4cc5nc(O[C@@H]6CO[C@H](CO)[C@H]6O)[nH]c5cc4Cl)cc3)cc2)[nH]n1 [Example 4] | –
50 | 246 | Cc1cc(-c2ccc(-c3ccc(-c4c(F)cc5[nH]c(O[C@@H]6CO[C@H](CO)[C@H]6O)nc5c4F)cc3)cc2)[nH]n1 [Example 20] | –
38 | 230 | N#Cc1ccc(-c2ccc(-c3c(F)cc4[nH]c(O[C@@H]5CO[C@H](CO)[C@H]5O)nc4c3F)cc2)c(F)c1 [Example 21] | –
34 | 316 | OC[C@H]1OC[C@@H](Oc2nc3c(F)c(-c4ccc(-c5ccc(C6CNCCO6)cc5)cc4)c(F)cc3[nH]2)[C@@H]1O (stereo partly drawn) [Example 18] | –
33 | 269 | OC[C@H]1OC[C@@H](Oc2nc3cc(-c4ccc(-c5ccc(-n6cccn6)cc5)cc4)c(Cl)cc3[nH]2)[C@@H]1O [Example 9] | –
6 | 313 | CC(CO)(CO)c1ccc(-c2ccc(-c3c(F)cc4[nH]c(O[C@@H]5CO[C@H](CO)[C@H]5O)nc4c3F)cc2)cc1 [Example 16] | –
5 | 278 | CC(CO)(CO)c1ccc(-c2ccc(-c3cc4nc(O[C@@H]5CO[C@H](CO)[C@H]5O)[nH]c4cc3Cl)cc2)cc1 [Example 8] | –
3 | 299 | OC[C@H]1OC[C@@H](Oc2nc3c(F)c(-c4ccc(-c5ccc(-c6nccc(O)n6)cc5)cc4)c(F)cc3[nH]2)[C@@H]1O [Example 15] | –
